Experimental data: patent US9840481B2, “Allosteric modulators of nicotinic acetylcholine receptors” (MERCK SHARP & DOHME CORP., priority 2016, dated 2017)
Read-outs that look alike come from different tables or passages of the source.

Molecular target: T1, human α7 nAChR stably expressed in a HEK cell line (with human RIC-3) (Homo sapiens, UniProt P36544)
T1 construct: PrecisION hnAChR α7/RIC-3
Experiment: Automated patch-clamp electrophysiology functional assay (Assay A), IonFlux HT, whole-cell population patch
Type: cell-based
Procedure, shortened: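 Whole-cell population patch clamp (IonFlux HT) used HEK cells stably co-expressing human α7 and RIC-3, held at −60 mV at room temperature. Compounds were applied alone (agonism) or with 40 μM acetylcholine (potentiation), three ascending concentrations per recording. Currents were quantified relative to a 40 μM acetylcholine reference response, giving EC50.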

[1] = automated patch-clamp electrophysiology functional assay (Assay A), potency class by EC50, read-out: α7 nAChR Potency
[2] = electrophysiology EC50, HEK cells expressing human α7/RIC-3, 40 μM acetylcholine, holding potential −60 mV, room temperature, read-out: α7 nAChR EC50

T1 sequence (P36544 23-502): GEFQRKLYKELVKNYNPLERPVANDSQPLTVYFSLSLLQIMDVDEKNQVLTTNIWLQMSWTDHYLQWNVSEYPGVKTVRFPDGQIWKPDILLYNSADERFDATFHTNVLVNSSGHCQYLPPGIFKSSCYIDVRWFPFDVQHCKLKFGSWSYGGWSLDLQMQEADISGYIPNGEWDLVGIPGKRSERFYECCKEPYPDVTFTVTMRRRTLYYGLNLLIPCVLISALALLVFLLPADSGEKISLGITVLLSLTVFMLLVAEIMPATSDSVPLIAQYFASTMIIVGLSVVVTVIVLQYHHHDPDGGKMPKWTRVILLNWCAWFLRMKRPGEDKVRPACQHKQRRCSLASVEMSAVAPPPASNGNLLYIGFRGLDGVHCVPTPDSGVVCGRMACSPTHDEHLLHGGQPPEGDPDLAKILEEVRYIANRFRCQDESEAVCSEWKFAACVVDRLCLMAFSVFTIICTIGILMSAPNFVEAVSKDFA

Row | EC50 [1] | EC50 [2] | Compound
1 | 500 to 5000 nM | 950 nM | CC1(C)[C@@H](c2ccc(S(N)(=O)=O)cc2)[C@@H]1c1cn(-c2cccc(F)c2)nn1 [Example L6]
2 | 500 to 5000 nM |  | CC1(C)[C@@H](c2ccc(S(N)(=O)=O)cc2)[C@@H]1c1cn(-c2ccccc2)nn1 [Example L7]
3 | 500 to 5000 nM |  | CCOc1nc([C@@H]2[C@@H](c3ccc(S(N)(=O)=O)cc3)C2(C)C)ns1 [Example L9]
4 | ≤ 100 nM | 88 nM | NS(=O)(=O)c1ccc([C@@H]2C[C@H]2c2nsc(-c3cccc(F)c3)n2)cc1 [Example L10]
5 | 500 to 5000 nM |  | NS(=O)(=O)c1ccc([C@@H]2C[C@H]2c2csc(C3CCCC3)n2)cc1 [Example L14]
6 | 100 to 500 nM | 220 nM | CC1(C)[C@H](c2ccc(S(N)(=O)=O)cc2)[C@H]1c1noc(-c2cccc(F)c2)n1 [Example L18]
7 | 500 to 5000 nM | 1300 nM | CC1(C)[C@H](c2ccc(S(N)(=O)=O)cc2)[C@H]1c1noc(N2CCCCC2)n1 [Example L20]
8 | 500 to 5000 nM |  | NS(=O)(=O)c1ccc([C@H]2C[C@@H]2c2cnc(-c3ccccc3)s2)cc1 [Example L22]

Continued, molecule first:

Row | Compound | EC50 [1] | EC50 [2]
9 | CC1(C)[C@H](c2ccc(S(N)(=O)=O)cc2)[C@H]1c1cnn(C2CCCC2)c1 [Example L8] | 500 to 5000 nM | 
10 | NS(=O)(=O)c1ccc([C@@H]2C[C@H]2c2nsc(C3CCCCC3)n2)cc1 [Example L11] | 100 to 500 nM | 
11 | NS(=O)(=O)c1ccc([C@@H]2[C@@H](c3nsc(N4CCCCC4)n3)C2(F)F)cc1 [Example L12] | 100 to 500 nM | 
12 | NS(=O)(=O)c1ccc([C@@H]2[C@@H](c3nsc(-c4ccccc4)n3)C2(F)F)cc1 [Example L13] | 500 to 5000 nM | 740 nM
13 | CC1(C)[C@@H](c2ccc(S(N)(=O)=O)cc2)[C@@H]1c1csc(C2CCCC2)n1 [Example L15] | 100 to 500 nM | 370 nM
14 | CC1(C)[C@H](c2ccc(S(N)(=O)=O)cc2)[C@H]1c1noc(C2CCCCC2)n1 [Example L16] | 500 to 5000 nM | 
15 | CC1(C)[C@H](c2ccc(S(N)(=O)=O)cc2)[C@H]1c1noc(-c2ccccc2)n1 [Example L17] | 100 to 500 nM | 
16 | CC1(C)[C@H](c2ccc(S(N)(=O)=O)cc2)[C@H]1c1noc(C2(C(F)(F)F)CC2)n1 [Example L19] | 500 to 5000 nM | 
17 | NS(=O)(=O)c1ccc([C@@H]2C[C@H]2c2cnc(C3CCCC3)o2)cc1 [Example L21] | 500 to 5000 nM | 
